For the molecule `c1ccc2cc3ccccc3cc2c1`, the solubility (mole fraction) (in general, solubility expressed as the solute's share of all molecules) reads like this: (in 2-butanone, 298 K) 0.00477; (in 2-butanone, 303 K) 0.00591; (in 2-butanone, 308 K) 0.00712; (in 2-butanone, 313 K) 0.0085; (in 2-butanone, 318 K) 0.0134; (in acetonitrile, 298 K) 0.00066. Further, the solubility (mole fraction) is, setting by setting: (in acetonitrile, 303 K) 0.00093; (in acetonitrile, 308 K) 0.00135; (in acetonitrile, 313 K) 0.00196; (in acetonitrile, 318 K) 0.0027; (in isopropanol, 298 K) 0.00034; (in isopropanol, 303 K) 0.00044. Further, the solubility (mole fraction) runs as follows: (in isopropanol, 308 K) 0.00061; (in isopropanol, 313 K) 0.00081; (in isopropanol, 318 K) 0.00111.
Take `O=C1c2ccccc2C(=O)c2ccccc21`: the solubility (mole fraction) was 0.00054 (in 2-butanone, 298 K); 0.00062 (in 2-butanone, 303 K); 0.00075 (in 2-butanone, 308 K); 0.00087 (in 2-butanone, 313 K); 0.001 (in 2-butanone, 318 K); 0.00022 (in acetonitrile, 298 K). For the same molecule, the solubility (mole fraction) by setting is: (in acetonitrile, 303 K) 0.00026; (in acetonitrile, 308 K) 0.00032; (in acetonitrile, 313 K) 0.00039; (in acetonitrile, 318 K) 0.00048; (in isopropanol, 298 K) 8e-05; (in isopropanol, 303 K) 0.0001. Moreover, the solubility (mole fraction) by setting is: (in isopropanol, 308 K) 0.00012; (in isopropanol, 313 K) 0.00015; (in isopropanol, 318 K) 0.00018.

These data come from BigSolDB 2.1.
